Experimental findings from US20240245696A1, “INHIBITORS OF DNA PK AND USES THEREOF” (BioVentures, LLC, priority 2017, published 2024) are described below.

The test system of series [1] is skin allograft mouse model. The series can be described thus: Mouse skin allograft. The series is classed as in vivo. The procedure:
Materials: DNA-PK inhibitor, NU7441 was purchased from Selleckchem.com and used in vivo at 10 mg/kg diluted in DMSO and 40% PEG or in vitro at 5 μM. Tacrolimus (FK506) was ordered for Sigma Aldrich and used at a concentration of 1 mg/kg in vivo.
Mouse skin allograft: To confirm that DNA-PK inhibitors could function as an immunosuppressant in vivo, mouse skin allograft studies were performed. All studies were performed under an approved IACUC protocol. Ears from donor BALBc mice were removed and split into two removing all cartilaginous material. The ear skin was placed on an incision made to the back of a recipient C57BI6 or DNA-PK knockout (NOD.CB17-Prkdc scid/J-20) mouse. The skin was sutured in 4 places using 6-0 nylon sutures. Wounds were wrapped in gauze and ban-daids and allowed to heal for 6 days before removing the bandage. Spleens were harvested from donor mice for splenocyte isolation. On Day 0 through Day 10 (the day of sacrifice) mice were injected (100 ul) daily with one of the following: saline, Tacrolimus (1 mg/kg), or NU7441 ([…]). Mice were monitored for rejection daily which was indicated by dark, black appearance. At the time of sacrifice, mice were euthanisized according to IACUC guidelines and skin grafts removed and fixed in formalin for histology. Spleens and blood were also collected.

The subject of series [2] is IL-2. Briefly: qPCR of IL-2 expression in stimulated Jurkat cells. The class given is cell-based, human. To be noted: PHA+PMA stimulation. The protocol: Evaluation of PD-1 and IL-2 expression: The effect of NU7441 on the expression of PD-1, a protein with immunosuppressant function, and IL-2 was examined in Jurkat cells following stimulation with PHA+PMA and treatment with the inhibitor NU7441. qPCR analysis was performed using primers specific for PD1 and IL-2 sequences.

Series [3] relates to PBMC. Briefly: Cell viability assay (CELLTITER 96 AQUEOUS One) in PBMC. The class given is cell-based, human. To be noted: various concentrations, 48 hours. The protocol: Cell Culture: Human peripheral blood mononuclear cells (PBMC,) and Jurkat cells were purchased from ATCC (PCS-800-011, Manassas, VA). Cells were maintained at 37° C. in a humidified atmosphere composed of 5% CO2. Jurkat cells were cultured in RPMI 1640 medium which was supplemented with 10% FCS and human PBMC was cultured in RPMI 1640 medium which was supplemented with 10% FCS and pen/strep. Both Jurkat cells and PBMC were stimulated with PHA (50 ng/mL) and PMA (1 μg/mL) for 24 hours prior to harvesting for IL-2 detection or 6 hours prior for western blot analysis. The NU7441 DNA-PKcs inhibitor was added at varying concentrations at the time of stimulation. Cell viability assay: Cell viability assay was performed using Promega CELLTITER 96 AQUEOUS One Solution Cell Proliferation Assay (Madison, WI) and following the manufacturer's protocol. Briefly, 100 μL of PBMC or Jurkat cells were plated in a 96-well plate and treated with various concentration of NU7441 for 48 hours. CELLTITER solution (20 μL/100 μL of cell suspension) was added to the cells and the plate was incubated for 3 hours at 37° C. and the absorbance at 490 nm was recorded using SynergyHTX (BioTek, Winooski, VT) plate reader.

Series [4] concerns Th17 T cells. The series can be described thus: qPCR on T cell markers, Th17 differentiation of naïve CD4+ T cells. The series is classed as cell-based. To be noted: naïve CD4+ T cells from mouse spleens. The protocol: (§1) qPCR on T cell markers: Naïve CD4+ T cells were isolated by standard methods from the spleens of Balbc mice. T cells were grown in culture and treated with cytokines specific for differentiate into Th1 and Th17 subtypes. Additionally, T cells were cultured with NU7441 and FK506. qPCR was performed looking at the following markers: Batf3, RORyt, IL17, IL22, TGFBeta, Lymphotoxin, T-Bet.

For series [5], the system named is NFAT. The series can be described thus: Immunofluorescence of NFAT nuclear translocation in Jurkat cells. To be noted: Jurkat activated with PMA+PHA, inhibitor. The class given is cell-based, human. More on the design: dose or concentration left out as unconfirmed. The protocol: Immunofluorescence of NFAT: Jurkat cells were plated in poly-lysine treated 35 mm dish with glass-bottom (BioTek) overnight. The cells were fixed with 4% formaldehyde and permeabilized with permeabilization solution (0.2% TRITON X-100+OVA solution (0.1 mg/mL), 0.01% sodium azide). NFAT was probed with anti-NFAT2 (ab2796, Abcam) in permeabilization solution overnight at 4° C., and then washed with PBS. Fluorescein (FITC)-conjugated AffiniPure Donkey Anti-Mouse IgG (715-095-151, Jackson ImmunoResearch) was applied to the cells for 1 hour at room temperature. The cells were washed with PBS and ProLong Antifade reagent with DAPI (Molecular Probes) was applied. All samples were analyzed on an Olympus Fluoview FV1000 laser confocal microscope. Images from all microscopy experiments were processed using the FV10-ASW 3.1 Viewer (Olympus).

Series [6] concerns Th1 T cells. The series can be described thus: qPCR on T cell markers, Th1 differentiation of naïve CD4+ T cells. The class given is cell-based. To be noted: naïve CD4+ T cells from mouse spleens. The procedure:
as §1
A general note: Real-time PCR tracks product formation cycle by cycle.

Series [7] relates to IL-2. The series can be described thus: Secreted IL-2 ELISA, Jurkat cells stimulated with PMA+PHA. The class given is cell-based, human. To be noted: for level of IL-2: PMA+PHA 24 hour stimulation. The protocol:
Cell Culture: Human peripheral blood mononuclear cells (PBMC,) and Jurkat cells were purchased from ATCC (PCS-800-011, Manassas, VA). Cells were maintained at 37° C. in a humidified atmosphere composed of 5% CO2. Jurkat cells were cultured in RPMI 1640 medium which was supplemented with 10% FCS and human PBMC was cultured in RPMI 1640 medium which was supplemented with 10% FCS and pen/strep. […] The NU7441 DNA-PKcs inhibitor was added at varying concentrations at the time of stimulation.
Detection of secreted IL-2: Secreted IL-2 was detected by Human IL-2 ELISA Kit from Thermo Scientific (Waltham, MA). The manufacturer's protocol was followed. […] Jurkat cells stimulated with the anti-CD28/CD3 dynabeads were done so according to the manufacturer's protocol at a 1:1 ratio for 24 hours prior to harvesting. After stimulation, supernatant samples of Jurkat cells or PBMCs (2 million cells/mL) were collected and diluted 10 times before the assay. IL-2 standards and samples (50 μL) and Biotinylated antibody reagents (50 μL) were added to each well and the plate was incubated for 3 hours at room temperature. The plate was washed 3 times and 100 μL of Streptavidin-HRP solution was added. After 30 minutes of incubation at room temperature, the plate was washed 3 times. TMB substrate (100 μL) was added and incubated for 30 minutes in the dark at room temperature. Stop solution was added and the absorbance of each well was read at 450 nm using the plate reader.

In series [8] the target is DNA-PKcs (Homo sapiens, UniProt P78527). The series can be described thus: Western blot of phosphorylated DNA-PKcs (s2056) in activated Jurkat cells. The series is classed as cell-based. More on the design: host or cells: Jurkat cells. To be noted: Jurkat activated with PMA+PHA. For orientation: Immunoblotting shows a protein as a band on a membrane.
Method: Cell Culture: Human peripheral blood mononuclear cells (PBMC,) and Jurkat cells were purchased from ATCC (PCS-800-011, Manassas, VA). Cells were maintained at 37° C. in a humidified atmosphere composed of 5% CO2. […] Both Jurkat cells and PBMC were stimulated with PHA (50 ng/mL) and PMA (1 μg/mL) for 24 hours prior to harvesting for IL-2 detection or 6 hours prior for western blot analysis. The NU7441 DNA-PKcs inhibitor was added at varying concentrations at the time of stimulation.
Cell lysis and nuclear extract: Cells were washed with cold PBS twice and centrifuged at 5000 rpm for 5 minutes. For the nuclear extract, pellets were suspended with 800 μL of 10 mN HEPES lysis buffer (10 mM HEPES at pH 7.9, 10 mM KCl, 1 mM DTT, and 1× protease and phosphatase inhibitor) and incubated on ice for 15 minutes. 50 μL of NP-40 (10% in water) was added and the pellets were mixed for 10 seconds. Lysates were centrifuged for 5 minutes at 4° C. at 13,000 rpm. The supernatant solution which is containing the cytosolic fraction was discarded and the pellets were resuspended in 20 mM HEPES lysis buffer (20 mM HEPES at pH 7.9, 0.4 M NaCl, 1 mM DTT, and 1× protease, and phosphatase inhibitor) and incubated on ice for 15 minutes with intermittent mixing. Lysates were centrifuged for 10 minutes at 4° C. at 13,000 rpm. […]

“Also recorded” adds a separate entry of the source.

On to `O=c1cc(N2CCOCC2)oc2c(-c3cccc4c3sc3ccccc34)cccc12` [NU7441], for which, in series [1] (Day 10, BALBc donor skin on C57BI6 recipient, daily injection Day 0 through Day 10), the “level of necrosis of skin graft, average” value is given as “around 30%”. The “rejection in skin allograft mouse model” value in series [1] (compared to control groups treated only with saline) is listed as “reduces rejection”. The “visual examination of graft necrosis” value in series [1] (treatment groups vs saline groups (severe necrosis)) is reported as “majority with 0% necrosis”. Further, in series [2], the IL-2 expression entry is recorded as “reduced”. In series [3], the “cellular viability of PBMC” value was “did not affect cellular viability; also recorded: does not reduce cell viability”. For the same molecule, in series [4], the “Th17 differentiation (markers Batf3, RoRyt, IL22, TGFBeta, IL17)” value is on record as “suppressing a Th17 environment”. Also, in series [5], the “nuclear localization of NFAT” value was “nuclear localization was prevented; also recorded: blocked translocation of NFAT to the nucleus”. The “Th1 differentiation (markers T-Bet, Lymphotoxin)” value in series [6] is “promoting the expression of Th1 T cells”. Also, in series [7] (PMA (50 ng/ml)+PHA (1 μg/mL), 24 hours, concentration not stated (FIG. 1B)), the IL-2 secretion entry is listed as “significantly blocked IL-2 secretion”. Moreover, the “level of IL-2” value in series [7] (2.5 µM NU7441) is “significantly decreased”; in series [7] (5 μM NU7441) it was “further decreased”. Also, the “DNA-PKcs phosphorylation (s2056)” value in series [8] is “effectively inhibited DNA-PKcs phosphorylation”; in series [8] (listed as NU744) it was “reduced”.
